Test results: PubChem BioAssay AID1636 (PCMD, 2009)

Molecular target: Procathepsin L (Homo sapiens) (UniProt P07711)
Assay: CTSL enzyme inhibitors – biochemical, probe 2, dose response (AID 1636)
Settings: purified human cathepsin L enzyme inhibition

Procathepsin L (Homo sapiens), sequence (P07711 114-288 limits assumed): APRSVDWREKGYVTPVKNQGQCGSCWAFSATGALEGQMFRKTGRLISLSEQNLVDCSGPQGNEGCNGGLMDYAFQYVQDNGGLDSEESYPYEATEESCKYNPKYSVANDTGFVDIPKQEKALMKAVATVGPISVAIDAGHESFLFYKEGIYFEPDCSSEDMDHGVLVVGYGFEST
Procathepsin L (Homo sapiens), sequence (P07711 292-333 limits assumed): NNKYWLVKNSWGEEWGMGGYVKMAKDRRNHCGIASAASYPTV

CC(C)(C)OC(=O)N[C@@H](Cc1c[nH]c2ccccc12)C(=O)NNC(=O)OCC(=O)N1CCCc2ccccc21
IC50: 7 nM
